What is called AC50 is the concentration giving half of the maximal activity seen.

Molecules are shown by their SMILES. Activity calls are given as the source filed them.

Assay [1] deals with T1, Methionyl-tRNA synthetase, putative (Trypanosoma brucei brucei, UniProt Q38C91).
T1 sequence (Q38C91 whole entry): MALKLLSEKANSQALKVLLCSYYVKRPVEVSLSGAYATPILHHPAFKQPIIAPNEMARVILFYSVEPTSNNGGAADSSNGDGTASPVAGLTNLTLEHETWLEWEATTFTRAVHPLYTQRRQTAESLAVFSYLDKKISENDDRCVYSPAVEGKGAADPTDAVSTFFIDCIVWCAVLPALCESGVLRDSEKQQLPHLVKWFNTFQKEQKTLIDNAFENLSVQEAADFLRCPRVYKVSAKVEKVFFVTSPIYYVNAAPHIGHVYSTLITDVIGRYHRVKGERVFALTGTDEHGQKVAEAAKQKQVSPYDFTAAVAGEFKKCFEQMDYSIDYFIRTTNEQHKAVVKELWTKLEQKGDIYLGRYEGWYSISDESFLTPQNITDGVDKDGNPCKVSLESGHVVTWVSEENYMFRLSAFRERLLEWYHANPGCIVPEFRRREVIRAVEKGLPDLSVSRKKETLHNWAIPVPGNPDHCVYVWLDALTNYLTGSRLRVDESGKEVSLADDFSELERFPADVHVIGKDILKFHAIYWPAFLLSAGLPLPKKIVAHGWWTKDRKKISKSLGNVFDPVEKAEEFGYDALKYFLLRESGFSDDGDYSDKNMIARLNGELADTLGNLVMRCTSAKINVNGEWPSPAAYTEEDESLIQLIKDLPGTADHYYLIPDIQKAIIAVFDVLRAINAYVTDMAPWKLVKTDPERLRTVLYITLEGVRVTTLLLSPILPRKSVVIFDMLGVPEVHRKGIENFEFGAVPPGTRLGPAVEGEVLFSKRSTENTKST
The format is functional, Trypanosoma brucei brucei strain 927/4 GUTat10.1.

Assay [2] can be described thus: Counterscreen for inhibitors of Trypanosoma brucei methionyl tRNA synthetase (MetRS): Luminescence-based cell-based high throughput dose response assay to identify compounds that are cytotoxic to Jurkat human T lymphocyte cells. Type of assay: functional. (In general: Counterscreens check selectivity or assay interference.)
Assay [3] addresses T1, Methionyl-tRNA synthetase, putative. The format is functional, Trypanosoma brucei brucei strain 927/4 GUTat10.1. This is another data set of the same source.
Another assay has as its target Protein Wnt-3a (Mus musculus, UniProt P27467). The assay is described as follows: antagonism of Wnt3a pathway luciferase reporter – Wnt-LIGHT cells, luminescence, selectivity assay for Gli-SUFU antagonist project, dose response (AID 651570).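 Also: Wnt-LIGHT reporter cells stimulated with conditioned medium from Wnt3a-producing cells.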 The format is functional. The note with it: read-out: IC50_Mean. For orientation: Reporter assays use an easily measured gene product as a stand-in for the process of interest.

The next assay has as its system CHO-K1. Description: Counterscreen for antagonists of the orexin 1 receptor (OX1R; HCRTR1): Homogeneous time resolved fluorescence (HTRF)-based cell-based dose response assay to identify antagonists of the parental CHO-K1 cell line. [Related pubchem assays (depositor defined):AID434989, AID435008, AID463079, AID485270, AID492963, AID492964, AID492965, AID493232, AID504699, AID504701]. Type of assay: functional. As to conditions: Cricetulus griseus.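 Also: potency for inhibition of ATP-stimulated IP1 production as antagonists.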

Assay [4] can be described thus: Counterscreen for antagonists of the orexin 1 receptor (OX1R; HCRTR1): Fluorescence-based cell-based high throughput dose response assay to identify antagonists of the parental CHO cell line. [Related pubchem assays (depositor defined):AID434989, AID435008, AID463079, AID485270, AID492963, AID492964, AID492965, AID493232, AID504699, AID504701]. The format is functional.

Assay [5] has as its target T2, Orexin/Hypocretin receptor type 1 (Homo sapiens, UniProt O43613).
T2 sequence (O43613 whole entry): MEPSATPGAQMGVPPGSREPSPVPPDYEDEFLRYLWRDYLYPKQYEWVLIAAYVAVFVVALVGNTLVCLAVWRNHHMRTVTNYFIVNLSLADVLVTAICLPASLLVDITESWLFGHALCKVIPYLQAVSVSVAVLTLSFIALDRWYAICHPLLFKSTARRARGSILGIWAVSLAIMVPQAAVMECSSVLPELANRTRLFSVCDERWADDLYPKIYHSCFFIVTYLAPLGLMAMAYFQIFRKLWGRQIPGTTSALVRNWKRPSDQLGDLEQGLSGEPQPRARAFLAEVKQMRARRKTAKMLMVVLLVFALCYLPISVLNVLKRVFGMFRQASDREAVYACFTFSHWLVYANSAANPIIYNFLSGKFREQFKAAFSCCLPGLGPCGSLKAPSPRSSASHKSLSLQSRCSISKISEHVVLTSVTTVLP
Description: Homogeneous Time Resolved Fluorescence (HTRF)-based cell-based high throughput dose response assay for antagonists of the orexin 1 receptor (OX1R; HCRTR1). [Related pubchem assays (depositor defined):AID434989, AID435008, AID463079, AID485270, AID492963, AID492964, AID492965, AID493232, AID504717, AID504718]. Type of assay: functional. For orientation: Time-resolved FRET reads energy transfer from a long-lived donor to a nearby acceptor.

In assay [6] the target is T2, Orexin/Hypocretin receptor type 1. Description: Fluorescence-based cell-based high throughput dose response assay for antagonists of the orexin 1 receptor (OX1R; HCRTR1). [Related pubchem assays (depositor defined):AID434989, AID435008, AID463079, AID485270, AID492963, AID492964, AID492965, AID493232, AID504717, AID504718]. Type of assay: functional.
For assay [7], the target named is T3, Orexin receptor type 2 (Homo sapiens, UniProt O43614).
T3 sequence (O43614 whole entry): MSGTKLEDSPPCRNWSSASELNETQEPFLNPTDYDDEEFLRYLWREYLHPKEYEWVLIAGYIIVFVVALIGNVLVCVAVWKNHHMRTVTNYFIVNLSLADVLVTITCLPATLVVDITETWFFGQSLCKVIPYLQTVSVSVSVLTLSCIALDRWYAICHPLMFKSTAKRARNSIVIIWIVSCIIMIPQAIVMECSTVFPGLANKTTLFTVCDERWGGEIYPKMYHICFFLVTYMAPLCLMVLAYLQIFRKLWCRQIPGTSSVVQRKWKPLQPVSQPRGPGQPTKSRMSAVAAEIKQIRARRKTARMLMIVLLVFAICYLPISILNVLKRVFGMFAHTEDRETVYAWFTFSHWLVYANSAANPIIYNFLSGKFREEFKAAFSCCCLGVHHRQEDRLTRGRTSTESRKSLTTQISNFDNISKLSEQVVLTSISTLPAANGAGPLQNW
Description: Counterscreen assay for antagonists of the orexin 1 receptor (OX1R; HCRTR1): Fluorescence-based cell-based dose response assay for antagonists of the orexin 2 receptor (OX2R; HCRTR2), run by assay provider. Type of assay: functional.

For assay [8], the target named is T3, Orexin receptor type 2. Description: Counterscreen assay for antagonists of the orexin 1 receptor (OX1R; HCRTR1): Homogeneous Time Resolved Fluorescence (HTRF)-based cell-based dose response assay for antagonists of the orexin 2 receptor (OX2R; HCRTR2), run by assay provider. Type of assay: functional.
Assay [9] concerns the target T4, Sentrin-specific protease 1 (Homo sapiens, UniProt Q9P0U3).
T4 sequence (Q9P0U3 whole entry): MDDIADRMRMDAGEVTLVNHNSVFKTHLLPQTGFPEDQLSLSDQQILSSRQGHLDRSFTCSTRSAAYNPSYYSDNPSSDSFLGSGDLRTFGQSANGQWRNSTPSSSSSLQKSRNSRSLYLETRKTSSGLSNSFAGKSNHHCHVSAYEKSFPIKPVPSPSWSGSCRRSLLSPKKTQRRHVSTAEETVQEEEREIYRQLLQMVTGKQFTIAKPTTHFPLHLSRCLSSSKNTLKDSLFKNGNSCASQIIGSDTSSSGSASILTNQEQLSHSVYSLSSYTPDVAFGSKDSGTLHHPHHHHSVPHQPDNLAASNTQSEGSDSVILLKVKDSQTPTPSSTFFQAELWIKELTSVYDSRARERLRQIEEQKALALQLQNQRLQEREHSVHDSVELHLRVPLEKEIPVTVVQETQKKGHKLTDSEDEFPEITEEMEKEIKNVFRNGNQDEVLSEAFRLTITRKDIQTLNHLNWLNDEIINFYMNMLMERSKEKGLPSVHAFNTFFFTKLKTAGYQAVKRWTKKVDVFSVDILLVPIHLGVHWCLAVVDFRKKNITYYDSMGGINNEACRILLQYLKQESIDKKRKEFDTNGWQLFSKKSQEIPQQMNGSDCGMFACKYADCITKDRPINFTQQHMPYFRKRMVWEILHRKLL
Description: SENP1 catalytic domain blockers, concentration series – biochemical, kinetic FRET, dose response (AID 651697). The format is functional. As to conditions: read-out: IC50_Mean.

In assay [10] the target is T4, Sentrin-specific protease 1. Description: Dose response confirmation of small molecule inhibitors of the catalytic domain of the SUMO protease, SENP1 in a FRET assay. Type of assay: functional. As to conditions: read-out: IC50_Mean.
The target in assay [11] is T5, Rac GTPase-activating protein 1 (Homo sapiens, UniProt Q9H0H5).
T5 sequence (Q9H0H5 whole entry): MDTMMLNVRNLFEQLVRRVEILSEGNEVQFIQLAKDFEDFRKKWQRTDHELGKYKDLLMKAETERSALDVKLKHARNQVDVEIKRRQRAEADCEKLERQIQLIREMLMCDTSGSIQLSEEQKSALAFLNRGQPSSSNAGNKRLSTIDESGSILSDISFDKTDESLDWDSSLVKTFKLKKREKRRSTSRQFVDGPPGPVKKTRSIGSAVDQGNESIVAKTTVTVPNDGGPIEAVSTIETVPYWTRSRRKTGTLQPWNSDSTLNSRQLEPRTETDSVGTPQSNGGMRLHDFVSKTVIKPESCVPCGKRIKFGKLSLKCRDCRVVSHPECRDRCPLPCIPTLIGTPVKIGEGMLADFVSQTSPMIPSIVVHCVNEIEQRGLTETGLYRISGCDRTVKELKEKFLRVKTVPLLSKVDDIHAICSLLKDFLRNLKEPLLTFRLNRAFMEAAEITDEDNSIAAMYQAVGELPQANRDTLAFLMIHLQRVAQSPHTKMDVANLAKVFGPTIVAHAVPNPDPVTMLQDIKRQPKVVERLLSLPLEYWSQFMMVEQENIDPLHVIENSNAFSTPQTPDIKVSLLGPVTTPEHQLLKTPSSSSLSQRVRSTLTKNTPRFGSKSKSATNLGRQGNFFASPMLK
Description: blockers of MgcRacGAP-driven Rac1 GTP hydrolysis – biochemical, ADP Hunter fluorescence, primary and confirmatory, confirmation (AID 624330). The format is functional.

Assay [12] concerns the target ADP-ribosylation factor GTPase-activating protein 1 (Rattus norvegicus, UniProt Q62848). The assay is described as follows: Fluorescence polarization-based biochemical high throughput dose response screening assay to identify inhibitors of ADP-ribosylation factor GTPase activating protein 1 (ARFGAP1). The format is functional.
The nature of assay [13]: Luminescence Cell-Based Dose Retest to Confirm Inhibitors of Cancer Stem Cells. [Related pubchem assays (depositor defined):AID2717, AID2721]. The note with it: Homo sapiens. Type of assay: functional.
Assay [14] has as its target Nuclear receptor subfamily 5 group A member 2 (Homo sapiens, UniProt O00482). The format is functional, cell-based.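 Also: HEK293T cells transfected with LRH-1 and a StAR promoter luciferase reporter; potency for inhibitors that lower LRH-1 driven reporter light.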
Another assay addresses Steroidogenic factor 1 (Homo sapiens, UniProt Q13285). The assay is described as follows: Counterscreen for inverse agonists of the liver receptor homolog-1 (LRH-1; NR5A2): Luminescence-based cell-based high throughput dose response assay to identify inverse agonists of the Steroidogenic Factor 1 Nuclear Receptor (SF1; NR5A1). Type of assay: functional.
A short description of assay [15]: nonselective StAR promoter luciferase inhibitors – cell-based, luminescence, luciferase reporter, counter-screen for LRH-1 inverse agonist project, dose response (AID 651969). Type of assay: functional.
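For AC50 in this document: cells exposed to compound for roughly 70 hours or longer before luminescence read.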

Chain of Protein Wnt-3a (P27467 whole entry): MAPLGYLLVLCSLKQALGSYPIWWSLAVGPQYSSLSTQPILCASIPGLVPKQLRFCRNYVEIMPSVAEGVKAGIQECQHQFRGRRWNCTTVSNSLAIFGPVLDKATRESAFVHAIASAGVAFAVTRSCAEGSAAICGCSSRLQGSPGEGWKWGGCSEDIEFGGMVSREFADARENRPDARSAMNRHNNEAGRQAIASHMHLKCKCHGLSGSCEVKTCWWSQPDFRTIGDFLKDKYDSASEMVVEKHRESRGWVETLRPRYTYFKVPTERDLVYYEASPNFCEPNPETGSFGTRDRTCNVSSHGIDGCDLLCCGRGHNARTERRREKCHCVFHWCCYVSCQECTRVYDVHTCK
Chain of ADP-ribosylation factor GTPase-activating protein 1 (Q62848 whole entry): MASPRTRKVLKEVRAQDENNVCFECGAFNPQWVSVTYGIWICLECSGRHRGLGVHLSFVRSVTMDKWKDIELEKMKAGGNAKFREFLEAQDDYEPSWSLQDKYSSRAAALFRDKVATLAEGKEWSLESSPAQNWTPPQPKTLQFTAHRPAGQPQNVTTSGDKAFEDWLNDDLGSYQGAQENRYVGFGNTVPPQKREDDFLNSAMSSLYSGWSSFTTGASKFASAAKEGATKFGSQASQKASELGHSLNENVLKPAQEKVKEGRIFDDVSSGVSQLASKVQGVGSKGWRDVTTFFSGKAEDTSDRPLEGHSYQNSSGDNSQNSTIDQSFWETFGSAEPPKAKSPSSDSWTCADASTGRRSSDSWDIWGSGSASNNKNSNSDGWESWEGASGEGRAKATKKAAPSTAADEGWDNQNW
Chain of Nuclear receptor subfamily 5 group A member 2 (O00482 whole entry): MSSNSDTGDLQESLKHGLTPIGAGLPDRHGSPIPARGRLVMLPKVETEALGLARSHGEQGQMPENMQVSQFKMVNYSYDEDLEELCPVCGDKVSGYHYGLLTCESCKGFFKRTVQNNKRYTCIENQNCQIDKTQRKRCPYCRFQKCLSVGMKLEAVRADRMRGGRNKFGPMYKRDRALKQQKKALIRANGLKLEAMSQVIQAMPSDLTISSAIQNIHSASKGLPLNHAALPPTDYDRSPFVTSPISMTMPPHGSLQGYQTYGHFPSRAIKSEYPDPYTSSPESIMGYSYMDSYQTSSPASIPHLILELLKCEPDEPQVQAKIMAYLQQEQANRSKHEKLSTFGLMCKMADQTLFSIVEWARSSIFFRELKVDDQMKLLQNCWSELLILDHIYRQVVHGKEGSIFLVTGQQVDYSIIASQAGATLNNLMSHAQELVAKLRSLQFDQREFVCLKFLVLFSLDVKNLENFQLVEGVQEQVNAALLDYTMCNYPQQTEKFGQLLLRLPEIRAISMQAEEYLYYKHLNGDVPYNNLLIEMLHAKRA
Chain of Steroidogenic factor 1 (Q13285 whole entry): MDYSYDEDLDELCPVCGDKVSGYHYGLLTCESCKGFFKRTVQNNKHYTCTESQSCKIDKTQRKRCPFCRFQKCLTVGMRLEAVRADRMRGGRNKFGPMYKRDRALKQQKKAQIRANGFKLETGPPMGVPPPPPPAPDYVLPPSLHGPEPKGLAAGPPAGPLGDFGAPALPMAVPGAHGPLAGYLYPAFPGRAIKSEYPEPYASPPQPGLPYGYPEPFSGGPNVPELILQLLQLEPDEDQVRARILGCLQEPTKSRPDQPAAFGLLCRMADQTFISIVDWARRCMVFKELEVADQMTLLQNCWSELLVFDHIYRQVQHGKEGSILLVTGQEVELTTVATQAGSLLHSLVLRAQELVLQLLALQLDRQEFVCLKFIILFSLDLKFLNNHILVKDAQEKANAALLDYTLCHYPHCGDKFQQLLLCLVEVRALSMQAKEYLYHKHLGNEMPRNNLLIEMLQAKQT

Consider `C[C@H](O)[C@@H]1CN2CCc3c([nH]c4ccccc34)[C@@H]2C[C@@H]1N(C)C(=O)Nc1cc(Cl)cc(Cl)c1`, for which the IC50 in assay [1] is 14.9 µM (inactive); in [2], 15.8 µM (inactive); in assay [3] it was 8.53 µM (active).

Consider `CC(=O)c1ccc(N2CCN(c3ccc(C(F)(F)F)cn3)CC2)cc1`, for which the IC50 at Protein Wnt-3a is 24.3 µM (inactive).

For the molecule `Fc1cccc(Nc2nc3ccccc3n3cnnc23)c1`, the IC50 with CHO-K1 is > 66.3 µM (inactive); in [4], > 49.8 µM (inactive); in assay [5] it was 2.03 µM (active); in assay [6], 7.59 µM (active); at Orexin receptor type 2 [7], > 88.8 µM (inactive); at Orexin receptor type 2 [8], 2.13 µM (active).

For `COc1cc(/C=C2\SC(=Nc3c(C)n(C)n(-c4ccccc4)c3=O)NC2=O)ccc1O`, the IC50 in assay [9] is 15.5 µM (active); in [10], 11.2 µM (active); in assay [11], 38.7 µM (active).

As to `COc1ccc2oc(C(=O)OCC(=O)N3CC(C)CC(C)C3)c(C)c2c1` (configuration not stated), the IC50 in [12] was 44.9 µM (inactive).

Take `C=CCNc1nc(NCCOC)c2sc(-c3ccccc3)cc2n1`: in assay [12], the IC50 was 101 µM (inactive).

Take `Cn1c2ccccc2c(=O)c2cc(C#Cc3ccccn3)ccc21`: the IC50 is > 66.2 µM (inactive) with CHO-K1; > 49.7 µM (inactive) in [4]; 0.413 µM (active) in assay [5]; 3.9 µM (active) in assay [6]; > 88.8 µM (inactive) on Orexin receptor type 2 [7]; > 50 µM (inactive) at Orexin receptor type 2 [8]. Besides, the AC50 in [13] is 9.17 µM (active).

For `CC(C)CC1(C)NC(=O)N(CC(=O)Nc2ccc3c(c2)OCCO3)C1=O` (configuration not stated), the values for the IC50 (in assay [14]; at Steroidogenic factor 1; in assay [15]) were 42.7 µM (inactive), 7.12 µM (active) and 35.9 µM (inactive), respectively.

Turning to `Cc1ccc(C)c([N+]2=C3CCCCN3C(O)(c3cccs3)C2)c1` (configuration not stated), the IC50 at Protein Wnt-3a is 13.2 µM (active).

`Cc1c(C(=O)OCC(=O)NCCN2C(=O)CSC2=O)oc2c1ccc1ccccc12`: the IC50 was > 66.2 µM (inactive) in the assay on CHO-K1; > 49.7 µM (inactive) in assay [4]; 1.23 µM (active) in assay [5]; 6.78 µM (active) in assay [6]; > 88.8 µM (inactive) at Orexin receptor type 2 [7]; > 50 µM (inactive) at Orexin receptor type 2 [8].

For the origin of these results see ChEMBL document CHEMBL1201862, “PubChem BioAssay data set” (2004).
